# Test results: PubChem BioAssay (NCI)
#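 96-well plates; 48 h exposure; 5 concentrations. Endpoints by linear interpolation between flanking doses. Not reached: highest tested concentration assigned. GI50 is the concentration that inhibits growth by half. TGI marks complete inhibition of growth.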
# Legend:
# Experiment in all cases: DTP human tumour cell line panel, 48 h
# OVCAR-3 ovarian = tested on: OVCAR-3 ovarian
# IGROV1 ovarian = tested on: IGROV1 ovarian
# K-562 leukemia = tested on: K-562 leukemia
# SK-MEL-2 melanoma = tested on: SK-MEL-2 melanoma
# SK-OV-3 ovarian = tested on: SK-OV-3 ovarian
# RXF 393 renal = tested on: RXF 393 renal
# SNB-75 CNS = tested on: SNB-75 CNS
# HCT-15 colon = tested on: HCT-15 colon
# HT29 colon = tested on: HT29 colon
# SF-295 CNS = tested on: SF-295 CNS
# SW-620 colon = tested on: SW-620 colon
Compound,TGI (OVCAR-3 ovarian) [µM],TGI (IGROV1 ovarian) [µM],TGI (K-562 leukemia) [µM],TGI (SK-MEL-2 melanoma) [µM],TGI (SK-OV-3 ovarian) [µM],TGI (RXF 393 renal) [µM],TGI (SNB-75 CNS) [µM],TGI (HCT-15 colon) [µM],TGI (HT29 colon) [µM],TGI (SF-295 CNS) [µM],TGI (SW-620 colon) [µM],GI50 (OVCAR-3 ovarian) [µM],GI50 (K-562 leukemia) [µM],GI50 (SK-MEL-2 melanoma) [µM],GI50 (SK-OV-3 ovarian) [µM],GI50 (SNB-75 CNS) [µM],GI50 (HCT-15 colon) [µM],GI50 (HT29 colon) [µM],GI50 (SF-295 CNS) [µM]
CCCCCCCCCC/C=C/C=O,> 100,> 100,> 100,> 100,> 100,> 100,> 100,> 100,> 100,> 100,> 100,–,–,–,–,–,–,–,–
NCCCn1c2c(c3ccc([N+](=O)[O-])cc3c1=O)C(=O)c1cc(F)ccc1-2,0.152,–,0.331,1.05,0.349,–,0.268,0.647,0.515,0.142,–,0.031,< 0.0205,0.326,0.0139,0.023,0.0595,< 0.0153,0.0157
Cc1cc(C)c(NC(=O)/C=C/c2ccccc2)c(C)c1,> 100,> 100,> 100,> 100,> 100,> 100,> 100,> 100,> 100,> 100,> 100,–,–,–,–,–,–,–,–
CN1C(=O)CN2C(Cl)(Cl)C2(c2ccccc2)c2cc(Cl)ccc21 (stereo not given),> 100,> 100,> 100,> 100,> 100,> 100,–,> 100,> 100,> 100,> 100,–,–,–,–,–,–,–,–
O=C1/C(=C/c2ccc(Cl)cc2)N=C(c2ccccc2)N1/N=C/c1ccccc1O,36.3,26.4,31,46.3,22.4,29.5,31,> 100,> 100,29.7,> 100,–,–,–,–,–,–,–,–
NC(Cc1ccccc1)c1nn[nH]n1 (stereo not given),> 100,> 100,> 100,> 100,> 100,> 100,> 100,> 100,> 100,> 100,> 100,–,–,–,–,–,–,–,–
C#C[C@]1(O)[C@@H](CO)O[C@@H](n2ccc(N)nc2=O)[C@@H]1O,> 20.8,> 38.1,> 100,0.617,> 100,2.12,1.82,> 100,–,3.07,3.92,–,–,–,–,–,–,–,–
